According to patent publication US4536398A, “Antiviral agents” (Meiji Seika Kaisha Ltd., priority 1982, dated 1985):
≈ marks a conversion by molar mass, not a printed value. Where two headings read alike, the source gives them in different places.

Experiments:
Proteus vulgaris OX-19 = test: Agar dilution antibacterial MIC; format: cell-based; conditions: OX19, agar dilution method, read-out: Minimum Inhibitory Concentration
[1] = system: Baciullus anthrasis No. 119; test: Agar dilution antibacterial MIC; format: cell-based; conditions: read-out: Minimum Inhibitory Concentration
in vitro = conditions: chicken, chorioallantoic membrane
[2] = system: Influenza virus A2 /Adachi; test: microbe, parasite or virus in culture; format: cell-based
[3] = system: Klebsiella pneumoniae PCI 602; test: Agar dilution antibacterial MIC; format: cell-based; conditions: PCI602, agar dilution method, read-out: Minimum Inhibitory Concentration
[4] = system: Citrobacter freundii GN 346; test: Agar dilution antibacterial MIC; format: cell-based; conditions: GN346, read-out: Minimum Inhibitory Concentration
Salmonella typhi 0-901-W = test: Agar dilution antibacterial MIC; format: cell-based; conditions: Salmonella enterica, read-out: Minimum Inhibitory Concentration
[5] = system: Escherichia coli W3630 RGN 823; test: Agar dilution antibacterial MIC; format: cell-based; conditions: W3630RGN823, read-out: Minimum Inhibitory Concentration
[6] = system: Influenza virus Horse/Miami; test: microbe, parasite or virus in culture; format: cell-based
[7] = Serum level after oral administration; format: in vivo; conditions: 125 mg/kg oral (5% arabin gum), HPLC, mice n=3
Procedure: | Dose: 125 mg/kg (5% arabin gum)

[8] = system: Staphylococcus aureus 209P; test: Agar dilution antibacterial MIC; format: cell-based; conditions: agar dilution method, read-out: Minimum Inhibitory Concentration
[9] = system: Influenza virus A2 /Adachi; test: microbe, parasite or virus in culture; format: cell-based; remark: listed apart in the source
Solubility = format: physicochemical
Influenza virus B/Lee [10] = test: microbe, parasite or virus in culture; format: cell-based
Influenza virus A1 /FM-1 [11] = test: microbe, parasite or virus in culture; format: cell-based
[12] = system: Influenza virus Horse/Miami; test: microbe, parasite or virus in culture; format: cell-based; remark: listed apart in the source
[13] = system: Salmonella enteritidis No. 11; test: Agar dilution antibacterial MIC; format: cell-based; conditions: Salmonella enterica, agar dilution method, read-out: Minimum Inhibitory Concentration
Vibrio percolance = test: Paper disc plate bioassay, inhibition zone; format: cell-based; conditions: paper disc plate method, read-out: diameter of inhibition zone
Source text: For assay of the substance SF-2140, bioassay agar is used as a medium for assay and Vibrio percolance is as a test microbe.

Influenza virus B/Lee [14] = test: microbe, parasite or virus in culture; format: cell-based; conditions: unidentified influenza virus, 48 h, read-out: 50% Virus proliferation inhibiting conc.
Escherichia coli No. 29 = test: Agar dilution antibacterial MIC; format: cell-based; conditions: agar dilution method, read-out: Minimum Inhibitory Concentration
Acute toxicity (LD50) = conditions: mouse, in vivo, ip; mice, intraperitoneal
Procedure: Acute toxicity (LD50 value) of the substance SF-2140, the active ingredient in the present antiviral agent, was not less than 500 mg/kg in mice via intraperitoneal administration.

Sarcina lutea = test: Agar dilution antibacterial MIC; format: cell-based; conditions: Micrococcus luteus; agar dilution method; read-out: Minimum Inhibitory Concentration
Proteus morganii Kono = test: Agar dilution antibacterial MIC; format: cell-based; conditions: Morganella morganii; agar dilution method; read-out: Minimum Inhibitory Concentration
[15] = system: Pseudomonas aeruginosa MB 3829; test: Agar dilution antibacterial MIC; format: cell-based; conditions: MB3829, agar dilution method, read-out: Minimum Inhibitory Concentration
[16] = Serum level after intraperitoneal administration; format: in vivo; conditions: 200 mg/kg intraperitoneal (1% CMC), biological assay, mice n=5
Procedure: | Dose: 200 mg/kg (1% CMC)

Stability = format: physicochemical
Source text: (13) Stability: Stable under acidic to neutral condition, instable under alkaline condition.

Influenza virus A1 /FM-1 [17] = test: microbe, parasite or virus in culture; format: cell-based; remark: listed apart in the source
[18] = system: Pseudomonas cepacia M-0527; test: Agar dilution antibacterial MIC; format: cell-based; conditions: Burkholderia cepacia, M0527; agar dilution method; read-out: Minimum Inhibitory Concentration
[19] = system: Shigella sonnei EW33 type I; test: Agar dilution antibacterial MIC; format: cell-based; conditions: EW33TYPEI, agar dilution method, read-out: Minimum Inhibitory Concentration
[20] = system: Streptococcus faecalis ATCC 8043; test: Agar dilution antibacterial MIC; format: cell-based; conditions: Enterococcus faecalis, ATCC8043; agar dilution method; read-out: Minimum Inhibitory Concentration
[21] = system: Staphylococcus aureus Smith; test: Agar dilution antibacterial MIC; format: cell-based; conditions: agar dilution method, read-out: Minimum Inhibitory Concentration
[22] = unidentified influenza virus, 2 h, read-out: 50% Virucidal conc.
[23] = unidentified influenza virus, 48 h, read-out: 50% Virus proliferation inhibiting conc.

## COC(=O)C1CC(O)C(O)C(n2cc(CC#N)c3c(OC)cccc32)O1 (stereo not shown) [SF-2140]
Proteus vulgaris OX-19
  MIC: 25 µg/mL (≈ 69.4 µM)
[1]
  MIC: 6.25 µg/mL (≈ 17.3 µM)
In vitro
  CC50 at 24 h: > 1000 µg/mL
[2]
  virucidal activity (in words): potent virucidal activity
[2]; [22]
  IC50: 58.8 µg/mL (≈ 163 µM)
[3]
  MIC: > 100 µg/mL
[4]
  MIC: > 100 µg/mL
Salmonella typhi 0-901-W
  MIC: 100 µg/mL (≈ 277 µM)
[5]
  MIC: 50 µg/mL (≈ 139 µM)
[6]
  virucidal activity (in words): potent virucidal activity
[6]; [22]
  IC50: 4.6 µg/mL (≈ 12.8 µM)
[7]; 180 min
  Serum concentration: 0 ng/mL
[7]; mouse, serum, 30 min
  concentration at 0.5 h: 15000 ng/mL
[7]; mouse, serum, 60 min
  concentration at 1 h: 7000 ng/mL
[8]
  MIC: 25 µg/mL (≈ 69.4 µM)
[9]
  proliferation inhibiting activity (in words): showed a proliferation inhibiting activity
[9]; A2 /Adachi, 50% toxicity conc. / 50% proliferation inhibiting conc., 2880 min
  virus proliferation inhibition index: > 10.0
[9]; [23]
  IC50: 100 µg/mL (≈ 277 µM)
Solubility; Ethyl acetate, benzene, acetone, chloroform
  Solubility: Soluble
Solubility; Hexane, water
  Solubility: Substantially insoluble
Solubility; Lower alcohol, e.g. methanol and ethanol
  Solubility: Easily soluble
Influenza virus B/Lee [10]
  virucidal activity (in words): potent virucidal activity
Influenza virus B/Lee [10]; [22]
  IC50: 46.4 µg/mL (≈ 129 µM)
Influenza virus A1 /FM-1 [11]
  virucidal activity (in words): potent virucidal activity
Influenza virus A1 /FM-1 [11]; [22]
  IC50: 4.6 µg/mL (≈ 12.8 µM)
[12]
  proliferation inhibiting activity (in words): showed a proliferation inhibiting activity
[12]; Horse/Miami, 50% toxicity conc. / 50% proliferation inhibiting conc., 2880 min
  virus proliferation inhibition index: > 56.5
[12]; [23]
  IC50: 17.7 µg/mL (≈ 49.1 µM)
[13]
  MIC: 12.5 µg/mL (≈ 34.7 µM)
Vibrio percolance; 125 mcg/ml
  zone of inhibition at 125 µg/mL: 14.6 mm
Vibrio percolance; 1000 mcg/ml
  zone of inhibition at 1000 µg/mL: 22 mm
Influenza virus B/Lee [14]
  IC50: > 200 µg/mL
Escherichia coli No. 29
  MIC: > 100 µg/mL
Acute toxicity (LD50)
  LD50: ≥ 500 mg/kg
Sarcina lutea
  MIC: 50 µg/mL (≈ 139 µM)
Proteus morganii Kono
  MIC: > 100 µg/mL
[15]
  MIC: > 100 µg/mL
[16]; 90 min
  Serum concentration: 0 ng/mL
[16]; mouse, serum, ip, 5 min
  concentration at 5 min: 30000 ng/mL
[16]; mouse, serum, ip, 10 min
  concentration at 10 min: 42000 ng/mL
[16]; mouse, serum, ip, 20 min
  concentration at 20 min: 55000 ng/mL
[16]; mouse, serum, ip, 30 min
  concentration at 0.5 h: 45000 ng/mL
[16]; mouse, serum, ip, 60 min
  concentration at 1 h: 27000 ng/mL
Stability; acidic to neutral condition
  Stability: Stable
Stability; alkaline condition
  Stability: instable
Influenza virus A1 /FM-1 [17]
  proliferation inhibiting activity (in words): showed a proliferation inhibiting activity
Influenza virus A1 /FM-1 [17]; A1 /FM-1, 50% toxicity conc. / 50% proliferation inhibiting conc., 2880 min
  virus proliferation inhibition index: > 20.0
Influenza virus A1 /FM-1 [17]; [23]
  IC50: 50.5 µg/mL (≈ 140 µM)
[18]
  MIC: 100 µg/mL (≈ 277 µM)
[19]
  MIC: > 100 µg/mL
[20]
  MIC: 12.5 µg/mL (≈ 34.7 µM)
[21]
  MIC: 100 µg/mL (≈ 277 µM)
